Laboratory results: patent US11970511B2, “Tetrahydropyran-based thiodisaccharide mimics as Galectin-3 inhibitors” (BRISTOL-MYERS SQUIBB COMPANY, priority 2018, dated 2024)

Molecular target: His-tagged recombinant human Gal-3 (hGal-3) (Homo sapiens, UniProt P17931)
Test: Gal-3 HTRF assay: His-tagged hGal-3 binding to B-ASF, Anti-His terbium antibody / Streptavidin d2 detection;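 also: compound preincubated 30 min with hGal-3, then 1 h with B-ASF, DMSO wells with B-ASF serving as positive control and those lacking B-ASF as negative control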
Conditions: 15 nM hGal-3, 15 nM B-ASF, three replicates, room temperature

Chain of His-tagged recombinant human Gal-3 (hGal-3) (P17931 whole entry): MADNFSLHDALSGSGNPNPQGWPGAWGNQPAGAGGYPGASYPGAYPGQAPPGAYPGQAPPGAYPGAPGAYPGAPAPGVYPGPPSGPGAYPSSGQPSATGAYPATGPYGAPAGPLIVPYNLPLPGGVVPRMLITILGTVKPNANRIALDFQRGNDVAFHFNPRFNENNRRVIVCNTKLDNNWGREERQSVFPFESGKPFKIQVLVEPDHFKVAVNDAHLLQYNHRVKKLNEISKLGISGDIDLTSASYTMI

Row | Compound | IC50 [nM]
1 | COc1ncc(-c2cn([C@H]3COC[C@@H](S[C@@H]4O[C@H](CO)[C@H](O)[C@H](n5cc(-c6cc(F)c(F)c(F)c6)nn5)[C@H]4OCC(=O)O)[C@@H]3O)nn2)cn1 [Example 30, 2-(((2S,3R,4S,5R,6R)-5-hydroxy-2-(((3R,4R,5S)-4-hydroxy-5-(4-(2-methoxypyrimidin-5-yl)-1H-1,2,3-triazol-1-yl)tetrahydro-2H-pyran-3-yl)thio)-6-(hydroxymethyl)-4-(4-(3,4,5-trifluorophenyl)-1H-1,2,3-triazol-1-yl)tetrahydro-2H-pyran-3-yl)oxy)acetic acid] | 8
2 | O=C(O)COC1C(SC2COCC(n3cc(-c4cncnc4)nn3)C2O)OC(CO)C(O)C1n1cc(-c2cc(F)c(F)c(F)c2)nn1 [Example 26, 2-(((2S,3R,4S,5R,6R)-5-hydroxy-2-(((3R,4R,5S)-4-hydroxy-5-(4-(pyrimidin-5-yl)-1H-1,2,3-triazol-1-yl)tetrahydro-2H-pyran-3-yl)thio)-6-(hydroxymethyl)-4-(4-(3,4,5-trifluorophenyl)-1H-1,2,3-triazol-1-yl)tetranydro-2H-pyran-3-yl)oxy)acetic acid] | 15
3 | CN(C(=O)COC1C(SC2COCC(n3cc(-c4cncnc4)nn3)C2O)OC(CO)C(O)C1n1cc(-c2cc(F)c(F)c(F)c2)nn1)c1ccccc1 [Example 29, 2-(((2S,3R,4S,5R,6R)-5-hydroxy-2-(((3R,4R,5S)-4-hydroxy-5-(4-(pyrimidin-5-yl)-1H-1,2,3-triazol-1-yl)tetrahydro-2H-pyran-3-yl)thio)-6-(hydroxymethy)-4-(4-(3,4,5-trifluorophenyl)-1H-1,2,3-triazol-1-yl)-2H-pyran-3-yl)oxy)-N-methyl-N-phenylacetamide] | 25
4 | CO[C@@H]1[C@@H](n2cc(-c3nccs3)nn2)[C@@H](O)[C@@H](CO)O[C@H]1S[C@@H]1COC[C@H](n2cc(-c3ccccc3)nn2)[C@H]1O [Example A5, (2R,3R,4S,5R,6S)-6-(((3R,4R,5S)-4-hydroxy-5-(4-phenyl-1H-1,2,3-triazol-1-yl)tetrahydro-2H-pyran-3-yl)thio)-2-(hydroxymethyl)-5-methoxy-4-(4-(thiazol-2-yl)-1H-1,2,3-triazol-1-yl)tetrahydro-2H-pyran-3-ol] | 490
5 | O=C(CO[C@@H]1[C@@H](n2cc(-c3cc(F)c(F)c(F)c3)nn2)[C@@H](O)[C@@H](CO)O[C@H]1S[C@@H]1COC[C@H](n2cc(-c3cncnc3)nn2)[C@H]1O)N1CCOCC1 [Example 28, 2-(((2S,3R,4S,5R,6R)-5-hydroxy-2-(((3R,4R,5S)-4-hydroxy-5-(4-(pyrimidin-5-yl)-1H-1,2,3-triazol-1-yl)tetrahydro-2H-pyran-3-yl)thio)-6-(hydroxymethyl)-4-(4-(3,4,5-trifluorophenyl)-1H-1,2,3-triazol-1-yl)tetrahydro-2H-pyran-3-yl)oxy)-1-morpholinoethan-1-one] | 10
6 | COc1ncc(-c2cn(C3COCC(SC4OC(CO)C(O)C(n5cc(-c6cc(F)c(F)c(F)c6)nn5)C4OCC(=O)N4CCS(=O)(=O)CC4)C3O)nn2)cn1 [Example 33, 1-(1,1-dioxidothiomorpholino)-2-(((2S,3R,4S,5R,6R)-5-hydroxy-2-(((3R,4R,5S)-4-hydroxy-5-(4-(2-methoxypyrimidin-5-yl)-1-1,2,3-triazol-1-yl)tetrahydro-2H-pyran-3-yl)thio)-6-(hydroxymethyl)-4-(4-(3,4,5-trifluorophenyl)-1H-1,2,3-triazol-1-yl)tetrahydro-2H-pyran-3-yl)oxy)ethan-1-one] | 12
7 | COc1c(F)c(F)c(C(=O)N[C@H]2[C@@H](O)[C@@H](CO)O[C@@H](S[C@@H]3COC[C@H](n4cc(-c5ccccc5)nn4)[C@H]3O)[C@@H]2OC)c(F)c1F [Example A13, 2,3,5,6-tetrafluoro-N-((2R,3R,4S,5R,6S)-3-hydroxy-6-(((3R,4R,5S)-4-hydroxy-5-(4-phenyl-1H-1,2,3-triazol-1-yl)tetrahydro-2H-pyran-3-yl)thio)-2-(hydroxymethyl)-5-methoxytetrahydro-2H-pyran-4-yl)-4-methoxybenzamide] | 570
8 | COc1ncc(-c2cn([C@H]3COC[C@@H](S[C@@H]4O[C@H](CO)[C@H](O)[C@H](n5cc(-c6cc(F)c(F)c(F)c6)nn5)[C@H]4OCC(=O)N4CC(O)C4)[C@@H]3O)nn2)cn1 [Example 34, 2-(((2S,3R,4S,5R,6R)-5-hydroxy-2-(((3R,4R,5S)-4-hydroxy-5-(4-(2-methoxypyrimidin-5-yl)-1H-1,2,3-triazol-1-yl)tetrahydro-2H-pyran-3-yl)thio)-6-(hydroxymethyl)-4-(4-(3,4,5-trifluorophenyl)-1H-1,2,3-triazol-1-yl)tetrahydro-2H-pyran-3-yl)oxy)-1-(3-hydroxyazetidin-1-yl)ethan-1-one] | 24
